Measurements: patent US12685725B2, “Pridopidine for the treatment of mitochondrial-associated diseases and disorders and endoplasmic reticulum (ER) stress” (PRILENIA NEUROTHERAPEUTICS LTD., priority 2019, dated 2026)
Where two headings read alike, the source gives them in different places.

Key:
[1] = tested on: WT and YAC128 cortical and striatal neurons; details: 24 h
Description: (§1) Mitochondrial membrane potential (Δψm) was assessed in cortical and striatal neurons using the positively changed fluorescent probe TMRM (tetramethylrhodamine methyl ester) (Thermo Fisher Sci., catalog no: T668) and in cortical/striatal co-cultures and lymphoblasts using an equivalent probe, TMRE (tetramethylrhodamine ethyl ester) (Abcam, catalog no. ab113852).
Under these conditions, retention of TMRM by mitochondria was studied to estimate changes in Δψm. […] TMRM release was calculated based in the differences in fluorescence before and after addition of oligomycin/FCCP.

[2] = tested on: S1R/BiP colocalization in NIH 3T3 cells
Description: Colocalization of S1R and mitochondria was assessed in NIH 3T3 cells expressing WT myc-Htt20Q or mutant myc-Htt96Q. Cells were then fixed, permeabilized and reacted with mouse anti-myc and rabbit anti-S1R. Images were pseudo-colored to better visualize the colocalization of S1R and MitoTracker.
(§2) Transfections of HEK 293 cells were carried out according to the calcium phosphate method. STHdh^Q7/7 cells are a murine striatal cell line with a stable knock-in of the full-length wild type (WT) human Htt containing a polyglutamine stretch of 7 glutamines (Trettel et al. 2000). […] No cell line used is listed as a commonly misidentified cell line. Cell lines were not authenticated. To reduce any risk of cross-contamination they were grown for a limited number of passages. Transient transfections of NIH 3T3 and STHdh^Q7/7 cells were performed using an MP-100 Microporator (Digital Bio) or ViaFect™ Transfection Reagent (Cat.No. E4981) (Promega), according to the manufacturer's protocols.
Briefly, cells grown for 24 h after transfection on coverslips in 24-well plates were fixed with 3% paraformaldehyde, followed by blocking with 50 mM glycine in PBS and normal goat IgG in PBS/2% BSA. The cells were incubated with primary antibodies for 1 h, washed and incubated for 30 min with secondary antibodies, followed by washes. Nuclei were stained with 4′,6-diamidino-2-phenylindole (Cat.No. F6057) (Sigma). Confocal microscopy was done on a Zeiss laser scanning confocal microscope (LSM 510; Carl Zeiss, Jena, Germany) as described previously. ImageJ was used to quantify fluorescence intensity in images of treated individual cells compared to untreated cells with and without Htt96Q-mCherry aggregates and to calculate Mander's coefficients for colocalization studies.

Y128 neurons = details: 5 μM given 24 h before 0.1 mM H2O2 for 6 h, p=0.001
Description: as §1
TMRE assay: Primary neurons and lymphoblasts in suspension were cultured in 6-well plates.

[3] = tested on: eIF2α phosphorylation in HEK 293 cells; details: for concentration of maximal effect on reducing eIF2α phosphorylation: cells expressing Htt96Q
Description: as §2
Cells were lysed in PBS containing 1% Triton X-100, 0.5% sodium deoxycholate with protease inhibitors and centrifuged to pellet insoluble aggregates, debris and nuclei. Phosphatase inhibitor cocktail 2 and 3 and 10 mM […] phosphate were added to the lysis buffer to inhibit phosphatases for detection of phosphorylated proteins. Supernatants were separated from pellets and incubated in loading buffer for 5 min at 100° C., pellets were incubated for 10 min at 100° C. After SDS-PAGE and transfer to nitrocellulose membrane, blocking was done in 5% low-fat milk and 0.1% Tween-20 in PBS for 1 h. Incubation with the primary antibody was overnight at 4° C. and after three washes in 0.1% Tween-20 in PBS, incubation with the appropriate secondary antibody was for 1 h at room temperature. After washing, enhanced chemiluminescence assay was performed and the membrane was exposed and quantified in a Bio-Rad ChemiDocXRS Imaging System (Bio-Rad, Hercules, CA).

[4] = tested on: isolated YAC128 striatal mitochondria; details: wild-type mice, 30 mg/kg/day oral gavage 45 days
Description: In isolated mitochondria, H2O2 levels were measured using the Amplex Red-horseradish peroxidase method. […] The homogenate was then dispensed into a 96-multiwell plate and fluorescence was measured in a spectrofluorometer microplate reader by excitation at 570 nm and emission at 585 nm every 30 s, for 20 min. After 10 min of basal reading, mitochondria were challenged with antimycin A (2 μM). Results were analyzed as time-dependent changes in fluorescence.
1.5-month-old WT and hemizygous YAC128 mice (males and females in equal proportion) were divided into four groups. […] Mice were divided 4 animals per cage enriched in corn-husk nesting material and paper rolls, each cage representing one individual experiment, for a total of 9 animals per group. Pridopidine was dissolved in deionized sterile water. Animals were weighed every week and the volume of treatment adjusted accordingly. Mice were behaviorally tested in rotarod immediately before commencing treatment and on the day before finishing treatment. Tests were conducted blindly at a set time during the day. Mice were sacrificed 24 h after administration of the final pridopidine dose, and mitochondria isolated from the striatum.
The final homogenate was then centrifuged at 1,100×g for 2 min, at 4° C. […] Protein content of isolated mitochondria was quantified by Bio-Rad assay (Bio-Rad, catalog no. 5000006).

## CCCN1CCC(c2cccc(S(C)(=O)=O)c2)CC1 [Pridopidine, 4-[3-(methylsulfonyl)phenyl]-1-propyl-piperidine]
[1]; WT striatal neurons, 1 μM, p=0.0013
  mitochondrial membrane potential (MMP), TMRM release: also increases MMP
[1]; Y128 high mHTT, cortical neurons, 0.1 μM, p=0.015
  mitochondrial membrane potential (MMP), TMRM release: significantly increases MMP
[1]; Y128 high mHTT, cortical neurons, 1 μM, p=0.0201
  mitochondrial membrane potential (MMP), TMRM release: significantly increases MMP
[1]; Y128 high mHTT, striatal neurons, 0.1 μM, p=0.0407
  mitochondrial membrane potential (MMP), TMRM release: significantly increases MMP
[1]; Y128 high mHTT, striatal neurons, 1 μM, p=0.0017
  mitochondrial membrane potential (MMP), TMRM release: significantly increases MMP
[1]; Y128 low mHTT, cortical neurons, 0.1 μM, p=0.0008
  mitochondrial membrane potential (MMP), TMRM release: significantly increases MMP
[1]; Y128 low mHTT, cortical neurons, 1 μM, p=0.0303
  mitochondrial membrane potential (MMP), TMRM release: significantly increases MMP
[1]; Y128 low mHTT, striatal neurons, 0.1 μM, p=0.0274
  mitochondrial membrane potential (MMP), TMRM release: significantly increases MMP
[2]; cells expressing Htt20Q
  S1R/BiP colocalization: does not affect S1R/BiP colocalization
[2]; cells expressing Htt96Q aggregates, 150 μM
  S1R/BiP colocalization (BiP-RFP): restores S1R/BiP colocalization in cells expressing Htt96Q aggregates to normal, unstressed levels
[2]; cells expressing myc-Htt96Q, 150 μM
  colocalization of S1R and BiP-GFP: shows a trend towards increasing colocalization
Y128 neurons
  H2O2-induced loss of MMP (TMRE): completely reverts this H2O2-induced loss of MMP
[3]; HEK293 cells expressing Htt96Q, 24 h, dose-dependent 0 to 3 μM
  reduction of eIF2α-phosphorylation levels compared to the untreated control: 3.6 fold
[3]; Htt96Q-expressing cells, high doses of 30 and 150 μM
  phosphorylation of eIF2α: no effect
[3]; after 8 hours
  concentration of maximal effect on reducing eIF2α phosphorylation: 3 µM
[3]; after 24 hours
  concentration of maximal effect on reducing eIF2α phosphorylation: 3 µM
[3]; cells expressing WT Htt20Q
  eIF2α phosphorylation: unaffected by pridopidine treatment
[3]; cells expressing myc-Htt20Q, 2 μg/ml thapsigargin
  TG-induced ER stress as measured by eIF2α-P: down to the levels of untreated cells
[4]
  mitochondrial H2O2 levels: does not affect
